Tests used:
[1] = tested on: HDAC responsive SV40 promoter; test: Activity Assay 2: SV40 promoter-luciferase reporter in MCF7 derived 2.1.1 cells; assay type: cell-based; conditions: approx 16 hours
Method: Method. We generated a stable clone derived from MCF7 cells containing an integrated reporter construct with the SV40 immediate early promoter cloned upstream of the luciferase gene. MCF7 cells were transfected with pGL2-Basic (SV40/luciferase reporter) (Promega, UK) and pcDNA3 (expresses neomycin resistance gene) using Transfast transfection reagent. After 24 hours, cells were collected by trypsinisation and plated at low density. The following day, G418 was added to the growth medium. After ˜21 days, individual drug-resistant colonies were isolated and cultured. […] To test the effects of compound 001, 2.1.1 cells were incubated with various concentrations of compound 001 or an equivalent amount of DMSO as a control. The following day, cells were collected and luciferase activity detected using the Promega luciferase assay system and a TopCount (Perkin-Elmer).
MCF7 derived cells containing a stably integrated SV40 promoter-luciferase reporter plasmid were treated with the indicated concentrations of compound 001, or DMSO as a solvent control. Luciferase activity was determined after approx 16 hours. The data shown are derived from a single experiment performed in duplicate and are representative of multiple experiments.

[2] = tested on: MCF7 cells; test: Activity Assay 3: cell cycle distribution and survival by propidium iodide flow cytometry; assay type: cell-based; conditions: MCF7, ~10×IC50 for growth inhibition, 24, 48 or 72 hours
Method: Method; MCF7 cells were incubated with indicated concentrations of compounds, or left untreated as a control, for various times, as detailed in the figure legends. Cells were collected and the proportion of cells in different phases of the cell cycle determined using propidium iodide staining and flow cytometry as previously described (Purohit et al., Int J Ca 85, 584-9 2000). The proportion of cells with <G0/G1 content (pre G0) relative to total cells was calculated first. The proportion of cells in different cell cycle phases (G0/G1, S, G2/M) was calculated as a proportion of all cells in the cell cycle (i.e., total cells minus cells with <G0/G1 content).
MCF7 cells were incubated with the indicated concentrations of compounds (each equivalent to ˜10×IC50 values for growth inhibition), or DMSO as a solvent control, for 24, 48 or 72 hours. The proportion of cells in different phases of the cell cycle was determined by flow cytometry. Data shown are mean values ±SD, derived from two separate experiments, relative to untreated cells which are normalised to 1.

[3] = tested on: histone acetylation in cardiac myocytes; test: Activity Assay 4: histone acetylation by immunoblotting, cardiac myocytes; assay type: cell-based; conditions: 24 hours
Method: Method; Cardiac myocytes were prepared as described in Chembiochem. 2005 January; 6(1):162-70 and incubated with the indicated concentrations of compound 001 for 24 hours. MCF7 cells were incubated with the indicated concentrations of compound 001 for 24 hours. Expression of total histone H4 acetylation, or specific acetylation of Histone H4-K8 or Histone H3-K9 was analysed by Western blotting, as previously described (Brimmell et al. Br J Cancer. 1999 November; 81(6):1042-51) using antibodies from Upstate Biotech.
(A) MCF7 cells were incubated with compound 001 for 24 hours. Histone H4 acetylation was measured by immunoblotting. (B) Cardiac myocytes were incubated with indicated compound 001 for 24 hours. Histone H4 acetylation was measured by immunoblotting. (C) MCF7 cells were incubated with compound 001 for 24 hours. Histone H3-K9 and Histone H4-K8 acetylation was measured by immunoblotting

[4] = tested on: acetylated histone H4 in primary chronic lymphocytic leukaemia cells; test: Histone H4 acetylation in primary chronic lymphocytic leukaemia cells; assay type: cell-based; conditions: data not shown
[5] = tested on: LNCAP prostate cancer cells; test: Activity Assay 6: CyQuant cell growth inhibition, LNCAP; assay type: cell-based; conditions: Homo sapiens, 96 h, 4 days
Method: We analysed the ability of compounds to inhibit the in vitro growth of human cancer cells. Cell proliferation assays were performed using the CyQuant™ assay system (Molecular Probes, Inc. USA) according to the manufacturer's instructions. MCF7 breast, A2780 ovarian and PC3 and LNCAP prostate cancer cells were plated in 96 well plates, at a density of 1000 cells for MCF7 cells or 5000 cells for M780/PC3/LNCAP cells, in 100 μl of cell culture medium per well. Compounds were added a minimum of 5 hours later, in serial dilutions in cell culture medium, in 100 μl volumes at 2× final concentration. Cell culture medium was removed after 4 (A2780, PC3 or LNCAP cells) or 6 days (MCF7 cells) by inversion of the plate onto blotting paper and cells were gently washed once with 200 μl PBS. Plates were frozen immediately for a minimum of one hour at −80° C. and then thawed. 200 μl of 1× CyQuant cell lysis buffer supplemented with dye, made according to the manufacturer's instruction, was added immediately to each well and incubated at room temperature for 3-5 minutes. Fluorescence was then measured for each well using a Cytofluor II Fluoresence Multiwell Plate Reader and CytoFluor II software with filters at 480 nm for excitation and 520 nm for emission maxima. Cell proliferation was determined for mean values of duplicate samples as percentages relative to untreated cell samples (=100%). Growth inhibition curves were used to derive IC50 values.

[6] = tested on: HDAC (Hela Nuclear Extract); test: Activity Assay 5: in vitro HDAC fluorescent activity assay (Biomol kit); assay type: biochemical; conditions: compounds reduced with DTT prior to analysis, 37° C., 1 hour, read-out: Inhibition of HDAC activity IC50
Method: We analysed the ability of compounds to inhibit in vitro HDAC activity. In vitro HDAC assays were performed using a HDAC fluorescent activity assay kit (Biomol, UK) according to the manufacturer's instructions. Compounds were reduced prior to analysis; 1 mM compound was reduced with 30 mM DTT in DMSO overnight at room temperature, protected from light. Reactions were then set up in a 96-well plate. […] Serial dilutions were set up for each compound. Reactions containing Hela extract only and assay buffer only were also set up. 25 μl diluted Fluor de Lys™ substrate (100-fold in assay buffer) was added to each reaction, which were then incubated at 37° C. for 1 hour. The reaction was stopped by addition of 50 μl Fluor de Lys™ Developer (20-fold dilution in assay buffer, plus TSA diluted 100-fold). […] Inhibition of in vitro HDAC activity was determined for mean values of duplicate samples as percentages relative to HeLa extract only reactions. IC50 values were calculated using GraphPad Prism software.

[7] = tested on: HUT78 T-cell leukaemia cells; test: CyQuant cell proliferation assay, HUT78; assay type: cell-based, human; conditions: data not shown

CC(C)[C@H]1NC(=O)[C@H]2CSSCC/C=C/[C@H](CC(=O)N[C@H](C)C(=O)N2)OC(=O)CNC1=O [Compound 9A, (E)-(1S,7R,10S,21R)-7-isopropyl-21-methyl-2-oxa-12,13-dithia-5,8,20,23-tetraaza-bicyclo[8.7.6]tricos-16-ene-3,6,9,19,22-pentaone]
activity of the HDAC responsive SV40 promoter (luciferase activity) [1]: effectively reverses HDAC-mediated repression of the SV40 immediate early promoter
cell cycle distribution and survival [2]: induce a predominant G2/M phase arrest and cell death
Histone H4 acetylation, cardiac myocytes [3]: induces the accumulation of acetylated histone H4
levels of acetylated histone H4, primary chronic lymphocytic leukaemia cells [4]: increased the levels of acetylated histone H4
IC50 [5]: 0.252 µM
IC50 [6]: 0.0099 µM
growth of HUT78 T-cell leukaemia cells [7]: inhibited the growth of these cells

— patent US7977304B2, “FK 228 derivates as HDAC inhibitors” (University of Southampton Highfield, priority 2005, dated 2011)
